Converted amounts (≈) assume the structure as drawn. Where two headings read alike, the source gives them in different places.
Legend:
OFX-R = assay: MIC OFX-R (Table E1); format: cell-based
H37Rv = assay: MIC H37Rv (Table E1, Additional BTO Activity Data); format: cell-based; details: Mycobacterium tuberculosis
[1] = MP MTT % viable (Table E1); details: MP (so in the source)
RMP-R = assay: MIC RMP-R (Table E1); format: cell-based
INH-r = assay: MIC INH-r (Table E1); format: cell-based
[2] = Solubility, shake-flask method; format: physicochemical; details: 0.9% saline solution at pH 7.4, triplicate
Protocol: The solubility of these two compounds was measured in triplicate using the shake-flask method in a 0.9% saline solution at pH 7.4. Both 8a and 20q had acceptable solubilities of 1.35 mg/mL and 0.28 mg/mL, respectively.
Compounds were ground into a fine powders using a mortar and pestle and added to a 25 mL glass Erlenmeyer flask with 5 mL of a 0.9% saline solution at pH 7.4. Approximately 20 mg of compound was added to each flask to ensure saturation. The flasks were then vigorously stirred using a magnetic stir bar at 25° C. for 48 hours. The samples were then filtered through a Whatman PVDF membrane (0.45 μm pore size) syringe filter. The concentration of compound in the supernatant was then measured using HPLC quantitation at the maximum absorption wavelength for each compound.

[3] = test system: Klebsiella pneumoniae ATCC 43816; assay: Spectrum of antimicrobial activity; format: cell-based
[4] = test system: Enterobacter aerogenes ATCC 29751; assay: Spectrum of antimicrobial activity; format: cell-based
[5] = test system: Salmonella choleraesuis ATCC 13311; assay: Spectrum of antimicrobial activity; format: cell-based
[6] = test system: Enterobacter aerogenes SRI Collection; assay: Spectrum of antimicrobial activity; format: cell-based
[7] = test system: Escherichia coli pKM101 SRI Collection; assay: Spectrum of antimicrobial activity; format: cell-based
[8] = test system: Moraxella catarrhalis ATCC 25238; assay: Spectrum of antimicrobial activity; format: cell-based
[9] = test system: Pseudomonas aeruginosa ATCC 27853; assay: Spectrum of antimicrobial activity; format: cell-based
Mtb H37Rv [10] = assay: TB MIC - SRI, resazurin-based microplate assay; format: cell-based, Mycobacterium tuberculosis; details: for MIC: Mycobacterium tuberculosis, H37RV, Tables 1-4 and text, read-out: TB MIC - SRI
Mtb H37Rv [11] = assay: TB MIC - ITR (UIC), Institute for Tuberculosis Research; format: cell-based, Mycobacterium tuberculosis; details: Mycobacterium tuberculosis, H37RV; Tables 1-4; read-out: TB MIC - ITR
NRP Mtb H37Rv cells = assay: Low-oxygen recovery assay (LORA) MIC; format: cell-based, Mycobacterium tuberculosis; details: Mycobacterium tuberculosis, H37RV, read-out: LORA MIC - ITR
[12] = Plasma pharmacokinetics in female mice after oral administration; format: in vivo, mouse; details: 100 mg/kg
Protocol: In order to validate BTOs as a new lead series for the treatment of TB, we also evaluated their systemic exposure in the mouse after oral administration. A single dose (100 mg/kg) of 8a and 20q were administered to mice in order to profile the pharmacokinetics for the BTOs (Table 7). […] The elimination half-life was for each compound was shorter than our ideal target values, but the Tmax values indicate that they are rapidly absorbed after oral administration (FIGURE).
All pharmacokinetic studies were performed in accordance with SRI International's animal care policies in an AAALAC and OLAW accredited facility. The procedure for the pharmacokinetics studies followed a previously described method.^55 Briefly, the plasma pharmacokinetics of selected BTO derivatives were determined in female CD1 mice after administration of a single dose (100 mg/kg) by oral gavage. Blood was collected from three mice per time point at 5, 15, 30, and 60 min and 2, 4, 6, 8, and 24 h after dose administration. Means and standard deviations were calculated for the plasma drug concentrations at each time point. Pharmacokinetic analysis was performed using non compartmental methods (WinNonlin® Professional, Version 5.2, Pharsight Corp, Mountain View, Calif.). The following parameters were calculated: time to maximum plasma concentration (Tmax), maximum plasma concentration (Cmax), maximum plasma concentration extrapoloated to time 0 (C0), area under the plasma concentration-time curve to the last time point (AUClast) and to infinity (AUCinf).

Escherichia coli BAA 201 = assay: Spectrum of antimicrobial activity; format: cell-based
[13] = test system: Mycobacterium abscessus ATCC 19977; assay: Spectrum of antimicrobial activity; format: cell-based
[14] = test system: Escherichia coli ATCC 25922; assay: Spectrum of antimicrobial activity; format: cell-based
[15] = test system: Klebsiella pneumoniae ATCC 700721; assay: Spectrum of antimicrobial activity; format: cell-based
[16] = test system: Acinetobacter baumannii ATCC 17978; assay: Spectrum of antimicrobial activity; format: cell-based
[17] = test system: Salmonella typhimurium -Hisg46 SRI Collection; assay: Spectrum of antimicrobial activity; format: cell-based
[18] = test system: Enterococcus fecalis ATCC 51575; assay: Spectrum of antimicrobial activity; format: cell-based
[19] = test system: Acinetobacter baumannii BAA 1605; assay: Spectrum of antimicrobial activity; format: cell-based
[20] = test system: Enterococcus fecalis ATCC 29212; assay: Spectrum of antimicrobial activity; format: cell-based
[21] = test system: Staphylococcus aureus ATCC 29213; assay: Spectrum of antimicrobial activity; format: cell-based
[22] = test system: Enterococcus faecium ATCC 19434; assay: Spectrum of antimicrobial activity; format: cell-based
[23] = test system: Staphylococcus aureus HA-MRSA NRS 382; assay: Spectrum of antimicrobial activity; format: cell-based
[24] = test system: Mycobacterium smegmatis ATCC 10143; assay: Spectrum of antimicrobial activity; format: cell-based
Vero cells = assay: Cytotoxicity against Vero cells (Cell Titer-Glo); details: 72 h; Tables 1-4 and text

CN(Cc1ccc(F)cc1)c1n[n+]([O-])c2cc3c(cc2[n+]1[O-])CCC3 [Cmpd 14]
MIC (OFX-R): 0.098 mg/L (≈ 0.288 µM)
MIC (H37Rv): 0.195 mg/L (≈ 0.573 µM)
viability at 0.01 ug/ml [1]: 112%
viability at 0.1 ug/ml [1]: 82%
viability at 1 ug/ml [1]: 1%
MIC (RMP-R): 0.049 mg/L (≈ 0.144 µM)
MIC (INH-r): 0.098 mg/L (≈ 0.288 µM)

[O-][n+]1nc(N2CCC(c3ccccc3Cl)C2)[n+]([O-])c2cc3c(cc21)CCC3 (centres unmarked) [Cmpd 15]
MIC (OFX-R): 0.024 mg/L (≈ 0.0627 µM)
MIC (H37Rv): 0.098 mg/L (≈ 0.256 µM)
viability at 0.01 ug/ml [1]: 102%
viability at 0.1 ug/ml [1]: 75%
viability at 1 ug/ml [1]: 58%
MIC (RMP-R): 0.098 mg/L (≈ 0.256 µM)
MIC (INH-r): 0.098 mg/L (≈ 0.256 µM)

COc1ccc(OC)c(C2CCN(c3n[n+]([O-])c4cc5c(cc4[n+]3[O-])CCC5)C2)c1 (centres unmarked) [Cmpd 16]
MIC (OFX-R): 0.098 mg/L (≈ 0.24 µM)
MIC (H37Rv): 0.195 mg/L (≈ 0.477 µM)
viability at 0.01 ug/ml [1]: 122%
viability at 0.1 ug/ml [1]: 97%
viability at 1 ug/ml [1]: 108%
MIC (RMP-R): 0.195 mg/L (≈ 0.477 µM)
MIC (INH-r): 0.098 mg/L (≈ 0.24 µM)

[O-][n+]1nc(N2CCC(c3ccc(F)cc3)C2)[n+]([O-])c2cc3c(cc21)CCC3 (centres unmarked) [Cmpd 17]
MIC (OFX-R): 0.049 mg/L (≈ 0.134 µM)
MIC (H37Rv): 0.098 mg/L (≈ 0.267 µM)
viability at 0.01 ug/ml [1]: 104%
viability at 0.1 ug/ml [1]: 82%
viability at 1 ug/ml [1]: 69%
MIC (RMP-R): 0.027 mg/L (≈ 0.0737 µM)
MIC (INH-r): 0.049 mg/L (≈ 0.134 µM)

COc1cccc(C2CCN(c3n[n+]([O-])c4cc5c(cc4[n+]3[O-])CCC5)C2)c1OC (centres unmarked) [Cmpd 18]
MIC (OFX-R): 0.049 mg/L (≈ 0.12 µM)
MIC (H37Rv): 0.391 mg/L (≈ 0.957 µM)
viability at 0.01 ug/ml [1]: 85%
viability at 0.1 ug/ml [1]: 55%
viability at 1 ug/ml [1]: 33%
MIC (RMP-R): 0.391 mg/L (≈ 0.957 µM)
MIC (INH-r): 0.195 mg/L (≈ 0.477 µM)

CCNc1n[n+]([O-])c2ccccc2[n+]1[O-] [Compound 8a, 3-(ethylamino)benzo[e][1,2,4]triazine 1,4-dioxide]
solubility [2]: 1.35 mg/mL (≈ 6550 µM)
Antimicrobial activity, Klebsiella pneumoniae [3]: >32 µg/mL
Antimicrobial activity, Enterobacter aerogenes [4]: >32 µg/mL
Antimicrobial activity, Salmonella choleraesuis [5]: 32 µg/mL
Antimicrobial activity, Enterobacter aerogenes [6]: >32 µg/mL
Antimicrobial activity, Escherichia coli pKM101 [7]: 32 μg/mL
Antimicrobial activity, Moraxella catarrhalis [8]: 32 µg/mL
Antimicrobial activity, Pseudomonas aeruginosa [9]: >32 µg/mL
Antimicrobial activity, Mtb H37Rv (Mtb H37Rv [10]; source CSU, SI Table 1): 1.2 µg/mL
MIC (Mtb H37Rv [11]): 0.57 mg/L (≈ 2.76 µM)
MIC (NRP Mtb H37Rv cells): 0.37 mg/L (≈ 1.79 µM)
AUCinf ([12]; female mice, oral): 6.937 µg·h/mL
AUClast ([12]; female mice, oral): 6.578 µg·h/mL
Cmax ([12]; female mice, oral): 9.54 µg/mL
Tmax ([12]; female mice, oral): 4.8 min
t1/2 ([12]; female mice, oral): 90 min
plasma drug concentration at the 24 hr time point ([12]; mouse, in vivo, po): lower than the limit of quantitation
Antimicrobial activity, Escherichia coli (Escherichia coli BAA 201): 16 µg/mL
susceptibility of M. abscessus [13]: resistant
Antimicrobial activity, Mycobacterium abscessus ([13]; ATCC 19977): >32 µg/mL
Antimicrobial activity, Escherichia coli [14]: 16 µg/mL
Antimicrobial activity, Klebsiella pneumoniae [15]: >32 µg/mL
Antimicrobial activity, Acinetobacter baumannii [16]: 32 µg/mL
Antimicrobial activity, Salmonella typhimurium -Hisg46 [17]: >32 µg/mL
Antimicrobial activity, Enterococcus fecalis [18]: 32 µg/mL
Antimicrobial activity, Acinetobacter baumannii [19]: >32 µg/mL
Antimicrobial activity, Enterococcus fecalis [20]: 16 µg/mL
Antimicrobial activity, Staphylococcus aureus [21]: >32 µg/mL
Antimicrobial activity, Enterococcus faecium [22]: >32 µg/mL
Antimicrobial activity, Staphylococcus aureus HA-MRSA [23]: 16 to 32 µg/mL
Antimicrobial activity, Mycobacterium smegmatis [24]: 5.0 µg/mL

O=C(Cn1ccnc1[N+](=O)[O-])NCCO [Etanidazole, reference compound]
MIC (Mtb H37Rv [10]): > 10 mg/L
MIC (Mtb H37Rv [11]): > 32 mg/L
MIC (NRP Mtb H37Rv cells; NRP Mtb, Tables 1-4 and text): 26 mg/L (≈ 121 µM)
Vero Tox CC50 (Vero cells): >16 mg/L

NNC(=O)c1ccncc1 [INH, Isoniazid, reference compound]
MIC (Mtb H37Rv [10]): 0.06 mg/L (≈ 0.438 µM)
MIC (Mtb H37Rv [11]): 0.091 mg/L (≈ 0.664 µM)
MIC (NRP Mtb H37Rv cells; NRP Mtb, Tables 1-4 and text): > 20 mg/L
Vero Tox CC50 (Vero cells): >50 mg/L

Cc1ncc([N+](=O)[O-])n1CCO [Metronidazole, reference compound]
MIC (Mtb H37Rv [10]): > 10 mg/L
MIC (Mtb H37Rv [11]): > 32 mg/L
MIC (NRP Mtb H37Rv cells; NRP Mtb, Tables 1-4 and text): 11 mg/L (≈ 64.3 µM)
Vero Tox CC50 (Vero cells): >16 mg/L

O=C1CN(/N=C/c2ccc([N+](=O)[O-])o2)C(=O)N1 [Nitrofurantoin, reference compound]
MIC (Mtb H37Rv [10]): 16 mg/L (≈ 67.2 µM)
MIC (Mtb H37Rv [11]): 28 mg/L (≈ 118 µM)
MIC (NRP Mtb H37Rv cells; NRP Mtb, Tables 1-4 and text): 32 mg/L (≈ 134 µM)
Vero Tox CC50 (Vero cells): 23 mg/L

Nc1n[n+]([O-])c2ccccc2[n+]1[O-] [TPZ, tirapazamine, reference compound]
MIC (Mtb H37Rv [10]): 5 mg/L (≈ 28.1 µM)
MIC (Mtb H37Rv [11]): 3.7 mg/L (≈ 20.8 µM)
MIC (NRP Mtb H37Rv cells; NRP Mtb, Tables 1-4 and text): 7.3 mg/L (≈ 41 µM)
Vero Tox CC50 (Vero cells): 8.0 mg/L
